# Columns and labels:
# [1] = tested on: pPCa tumors; assay: Newly synthesized proteins in vivo by OP-Puro incorporation in PDX; parameters: species or system mouse; conditions: ISRIB 10 mg/kg
# Procedure: (§1) FIGS. 5A, 5B, 5C, 5D, 5E, 5F, and 5G. FIGS. 5A, 5B, and 5C depict quantification of protein expression as relative mean IF intensity normalized to adjacent stromal tissue for: FIG. 5A: benign, FIG. 5B PCa, and mPCa cell types. FIG. 5D and FIG. 5E depict Kaplan-Meier tumor survival curves for mice bearing pPCa (5D) or mPCa (5E) tumors treated with ISRIB (10 mg/kg) or vehicle (n=8, per cohort; **P=0.01, log-rank test). […] FIG. 5F depicts quantification of PDX tumors treated with vehicle or ISRIB (10 mg/kg); (n=3, ***P<0.001, t test). FIG. 5G depicts quantification of newly synthesized proteins in vivo, assessed by incorporation of OP-Puro within PDX treated with ISRIB (10 mg/kg) or vehicle (n=3 to 4 per arm, mean±SEM; *P<0.05, t test). n.s., not significant. MFI, mean fluorescence intensity.
# (§2) Next, it was determined whether a metastatic PCa tumor, harboring high MYC and loss of PTEN activity in a complex genetic background of human PCa, relies on eIF2α phosphorylation as an adaptive response to restrain global protein synthesis. Therefore, newly synthesized proteins in vivo were assessed by measuring the incorporation of O-propargyl-puromycin (OP-Puro) within the primary and metastatic tumor-derived PDXs, which have low or high P-eIF2α, respectively. […] Within the area of intratumor ATF4 loss, apoptosis and decreased proliferation assessed by TUNEL and Ki67 staining of mPCa PDX was observed.
# [2] = tested on: mPCa PDX; assay: as above; parameters: species or system mouse; conditions: ISRIB 10 mg/kg
# Procedure: as §1, §2
# [3] = tested on: Pten^fl/fl;Myc^Tg mice prostate tumors; assay: Preclinical trial in mice with developed prostate tumors, MRI prostate volume; assay type: in vivo
# Procedure: (§3) To evaluate the necessity of P-eIF2α for promoting tumor growth or maintenance in vivo, a preclinical trial was conducted. Mice with developed tumors were imaged by magnetic resonance imaging (MRI) to confirm a measurable baseline of prostate volume per mouse and then grouped into cohorts for either vehicle or ISRIB treatment daily over the course of 6 weeks.
# [4] = tested on: Pten^fl/fl organoid cultures; assay: 35S methionine incorporation (newly synthesized proteins) and ATF4 expression in organoid cultures; assay type: cell-based, mouse; conditions: ISRIB treatment
# Procedure: (§4) To evaluate the effects of these key oncogenes on global protein synthesis, newly synthesized proteins were assessed by incorporation of ^35S-labeled methionine in organoid cultures. Primary mouse three-dimensional organoid cultures were established to recapitulate the cellular environment of the murine prostate gland ex vivo. Organoids were derived from dissociated mouse prostate tissue containing a mixed population of luminal and basal cell types to mimic the histology observed in vivo. Western blot analysis confirmed that Myc^Tg expression and PTEN loss were evident and associated with increased GFP expression and AKT phosphorylation. […] On the contrary, it was observed that an unanticipated but significant dampening in global protein synthesis occurred in Ptenfl/fl;MycTg mice (P=0.01), despite the fact that these mice developed more aggressive PCa (FIG. 1D).
# (§5) A general UPR response may promote adaptation to proteotoxic and ER stress, whereas the activation of P-eIF2α could place a direct brake on the overwhelming burden of protein synthesis that occurs during more aggressive tumorigenesis. To test this hypothesis, the organoid cultures were employed, which recapitulate the in vivo phenotype. […]
# [5] = tested on: PERK; conditions: PERK inhibitor as described; cited from earlier work
# [6] = tested on: mCRPC PDX; assay: Metastatic castration-resistant PCa PDX, survival and PSMA PET/CT imaging; assay type: in vivo, mouse
# Source text: In hormone-sensitive metastatic PCa, androgen deprivation therapy (ADT) remains the mainstay treatment; however, these tumors inevitably develop resistance to ADT and progress into the lethal form of metastatic castration-resistant PCa (mCRPC). Characterization of the hormone-sensitive metastatic disease has not been predictive of outcomes in the clinical setting of lethal mCRPC. To directly study the contribution of P-eIF2α to metastasis, an additional PDX (herein mCRPC PDX) was generated derived from a patient with mCRPC despite prolonged treatment with complete androgen blockage using leuprolide (ADT) and antiandrogen therapy (enzalutamide). Three weeks after implantation of the mCRPC tumor under the mouse renal capsule, tumor dissemination to the liver, distant kidney, lymph nodes, and spleen was observed.
# To examine the role of P-eIF2α from the early stages of metastatic growth to late stages of dissemination, a prostate-specific membrane antigen [^68Ga-PSMA-11 PET/computed tomography (CT)] scan was used to trace the progression of very small metastases from early to late stages of dissemination, which were not visible by conventional imaging modalities such as ^18F-DG PET/CT. Prostate-specific membrane antigen (PSMA) is highly expressed on the surface of PCa cells and allows sensitive staging to evaluate therapy response in the clinical setting. […]
# [7] = tested on: mPCa-PDX tumor; assay: Preclinical trial in patient-derived xenograft from lymph node metastasis; assay type: in vivo, mouse
# Procedure: as §1
# (§6) Next, it was sought to functionally evaluate whether the UPR pathway could be targeted, specifically through P-eIF2α, in advanced human PCa. Although it is historically difficult to generate human prostate patient-derived xenograft (PDX) models, this was successfully achieved with similar characteristics to the Pten^fl/fl;Myc^Tg mice to assess the effects of ISRIB on cancer growth and mortality. In particular, two PDX models were generated: one derived from a primary tumor, herein referred to as pPCa, and one derived from a lymph node metastasis in the left internal iliac chain from the same patient, herein referred to as mPCa. […] A significant increase in P-eIF2α was observed only in the mPCa (P<0.01).
# (§7) To test the therapeutic efficacy of ISRIB in human PCa, a preclinical trial was performed on the stably passaged PDX model.
# [8] = tested on: Pten^fl/fl;Myc^Tg organoid cultures; assay: 35S methionine incorporation (newly synthesized proteins) in organoid cultures; assay type: cell-based, mouse; conditions: Pten^fl/fl;Myc^Tg cells, ISRIB treatment
# Procedure: as §4, §5
# [9] = tested on: pPCa-PDX tumor; assay: Preclinical trial in patient-derived xenograft from primary tumor; assay type: in vivo, mouse
# Procedure: as §1, §6, §7
# [10] = tested on: Pten^fl/fl mice prostate tumors; assay: Preclinical trial in mice with developed prostate tumors, MRI prostate volume; assay type: in vivo, mouse
# Procedure: as §3
# [11] = tested on: RWPE-1 shPTEN;MYC^OE cells; assay: Apoptosis (annexin V-positive cells by flow cytometry) in engineered human prostate epithelial cells; assay type: cell-based; conditions: 500 nM ISRIB for 9 hours, shPTEN;MYC^OE cells relative to control samples
# Procedure: FIGS. 4A and 4B. FIG. 4A depicts quantification of annexin V-positive cells analyzed by flow cytometry relative to control cells after treatment with DMSO or 500 nM ISRIB for 9 hours (n=3, mean±SEM) *P<0.05, t test. FIG. 4B depicts Cox proportional hazards regression results in a Forest plot of hazard ratios and 95% CI for factors associated with risk of clinical progression after surgery. Independent factors are tumor with PTEN loss/low P-eIF2α or PTEN loss/high P-eIF2α versus a reference group with normal PTEN expression; age in years; PSA in nanograms per milliliter; Gleason score>7 versus 6; and pathological stage T3-T4 versus T2 at the time of prostatectomy.
# To extend these observations directly to human disease, human cell lines were created to mimic the genetic mouse models. Human RWPE-1 epithelial cells were created to stably knock down PTEN (shPTEN) with or without MYC overexpression. The combination of PTEN loss with increased MYC expression activated PERK signaling and P-eIF2α, showing that the adaptive response that we had observed in mice is also triggered in human prostate cells.
# [12] = pPCa-PDX, low P-eIF2α, ISRIB treatment
smiles,measurement,setting,value
O=C(COc1ccc(Cl)cc1)NC1CCC(NC(=O)COc2ccc(Cl)cc2)CC1 (stereo not drawn) [ISRIB],global protein synthesis (OP-Puro incorporation),[1],no change
same,global protein synthesis (OP-Puro incorporation),[2],marked increase
same,tumor size by MRI,"[3]; ISRIB-treated Pten^fl/fl;Myc^Tg mice, by 6 weeks",no progression in tumor size
same,toxicity,"[3]; Pten^fl/fl;Myc^Tg mice, daily ISRIB treatment",no signs of toxicity
same,tumor size by MRI,"[3]; Pten^fl/fl;Myc^Tg mice, daily ISRIB, 3 weeks",tumor regression within 3 weeks
same,immune cell infiltration (CD45),"[3]; after 3 weeks of ISRIB treatment, regardless of prostate tumor genotype",no significant changes
same,ATF4 expression,[4],decrease
same,protein synthesis (newly synthesized proteins),[4],not altered
same,IC50,[5],5 nM
same,survival,"[6]; mCRPC PDX mice bearing distal metastatic lesions, P=0.01",significantly prolonged survival
same,metastases at distal sites by PSMA PET/CT,[6]; mCRPC PDX mice treated with ISRIB,substantial metastatic regression
same,cell death: TUNEL staining and cleaved caspase 3 expression,"[7]; mPCa-PDX, after 9 days of ISRIB treatment",increased
same,tumor size,"[7]; mPCa-PDX, after 9 days of ISRIB treatment, P<0.01",significant tumor regression
same,survival,"[7]; mice bearing metastatic tumor with high P-eIF2α, ISRIB 10 mg/kg, P<0.01",significantly prolonged survival
same,newly synthesized proteins,[8],marked increase
same,effectiveness of ISRIB treatment (survival),"[9]; pPCa tumor, ISRIB 10 mg/kg",short-lived
same,cell death,[9]; [12],no significant cell death
same,tumor size,[9]; [12],did not show regression but stabilized with eventual tumor regrowth
same,increase in growth over individual baseline measurements,[10]; by 6 weeks,~40%
same,tumor size by MRI,"[10]; vehicle or daily ISRIB, 3 weeks",continued tumor growth
same,apoptosis (annexin V-positive cells),[11],marked increase in apoptosis

# — patent US12427148B2, “Cancer treatment targeted to tumor adaptive responses to protein synthesis stress” (priority 2018, dated 2025)
